The results in this text go back to ChEMBL document CHEMBL1123701, “Synthesis and quantitative structure-activity relationship analysis of N-triiodoallyl- and N-iodopropargylazoles. New antifungal agents” (1987).

For assay [1], the system named is Aspergillus fumigatus. Description: Antifungal activity against Aspergillus fumigatus Saito strain. In kind it is functional.
Assay [2] concerns Candida albicans. In words: Antifungal activity against Candida albicans C-A-24 strain. In kind it is functional.
The test system of assay [3] is Cryptococcus neoformans. Description: Antifungal activity against Cryptococcus neoformans Cr-1 strain. The class given is functional.
Assay [4] concerns Trichophyton interdigitale. In words: Antifungal activity towards Trichophyton interdigitale. In kind it is functional.
Assay [5] deals with Trichophyton benhamiae. Description: Antifungal activity towards Trichophyton mentagrophytes 530324 strain. In kind it is functional, Arthroderma benhamiae.

The structures appear in SMILES notation. ≈ marks a conversion by molar mass, not a printed value.

On to `COc1ccc(-c2nnnn2CC#CI)cc1`, for which the MIC – broadly, the smallest concentration in the dilution series that meets the test's criterion for growth inhibition – came to 0.78 µg/mL (≈ 2.29 µM) in assay [1]; 25 µg/mL (≈ 73.5 µM) in assay [2]; 25 µg/mL (≈ 73.5 µM) in assay [3]; 0.2 µg/mL (≈ 0.588 µM) in assay [4]; 0.1 µg/mL (≈ 0.294 µM) in assay [5].
For the compound `CC(C)(C)c1nnnn1CC#CI`, the MIC stood at 6.25 µg/mL (≈ 21.5 µM) in assay [1]; 12.5 µg/mL (≈ 43.1 µM) in assay [2]; 25 µg/mL (≈ 86.2 µM) in assay [3]; 0.78 µg/mL (≈ 2.69 µM) in assay [4]; 3.13 µg/mL (≈ 10.8 µM) in assay [5].
For `IC#CCn1nnc(-c2ccc(C3N=NN=N3)cc2)n1` the same measures were above 100 µg/mL, above 100 µg/mL, above 100 µg/mL, 1.56 µg/mL (≈ 4.13 µM) and 1.56 µg/mL (≈ 4.13 µM).
As to `CCCCCCCc1nnn(CC#CI)n1`, the MIC turned out to be 0.78 µg/mL (≈ 2.35 µM) in assay [1]; 12.5 µg/mL (≈ 37.6 µM) in assay [2]; 6.25 µg/mL (≈ 18.8 µM) in assay [3]; 0.1 µg/mL (≈ 0.301 µM) in assay [4]; 0.1 µg/mL (≈ 0.301 µM) in assay [5].
As for `CCOCCc1nnnn1CC(I)=C(I)I`, the MIC was determined as 3.13 µg/mL (≈ 5.59 µM) in assay [1]; 6.25 µg/mL (≈ 11.2 µM) in assay [2]; 6.25 µg/mL (≈ 11.2 µM) in assay [3]; 1.56 µg/mL (≈ 2.79 µM) in assay [4]; 0.1 µg/mL (≈ 0.179 µM) in assay [5].
With `COC(=O)c1cccn1CC#CI`, the MIC in assay [1] was 1.56 µg/mL (≈ 5.4 µM); in assay [2], 3.13 µg/mL (≈ 10.8 µM); in assay [3], 6.25 µg/mL (≈ 21.6 µM); in assay [4], 1.56 µg/mL (≈ 5.4 µM); in assay [5], 1.56 µg/mL (≈ 5.4 µM).
As to `IC#CCn1ccnn1`, the MIC in assay [1] worked out at 0.78 µg/mL (≈ 3.35 µM); in assay [2] it was 3.13 µg/mL (≈ 13.4 µM); in assay [3], 1.56 µg/mL (≈ 6.69 µM); in assay [4] it was 0.78 µg/mL (≈ 3.35 µM); in assay [5] it was 0.78 µg/mL (≈ 3.35 µM).
As to `COc1ccc(-c2nnnn2CC(I)=C(I)I)cc1`, the MIC in assay [1] came to 0.78 µg/mL (≈ 1.31 µM); in assay [2] it was 6.25 µg/mL (≈ 10.5 µM); in assay [3] it was 0.78 µg/mL (≈ 1.31 µM); in assay [4], 0.39 µg/mL (≈ 0.657 µM); in assay [5], 0.1 µg/mL (≈ 0.168 µM).
Regarding `Cc1cc(C)n(CC#CI)n1`, the MIC turned out to be 0.78 µg/mL (≈ 3 µM) in assay [1]; 6.25 µg/mL (≈ 24 µM) in assay [2]; 3.13 µg/mL (≈ 12 µM) in assay [3]; 0.78 µg/mL (≈ 3 µM) in assay [4]; 0.78 µg/mL (≈ 3 µM) in assay [5].
For the compound `IC#CCn1nnc(Cc2ccccc2)n1`, the minimal inhibitory concentration (MIC) in assay [1] came out at 0.78 µg/mL (≈ 2.41 µM); in assay [2] it was 6.25 µg/mL (≈ 19.3 µM); in assay [3] it was 6.25 µg/mL (≈ 19.3 µM); in assay [4], 0.1 µg/mL (≈ 0.309 µM); in assay [5], 0.1 µg/mL (≈ 0.309 µM).
On to `O=[N+]([O-])c1c[nH]c(Cl)c1Cl`, for which the MIC was 25 µg/mL (≈ 138 µM) in assay [1]; 100 µg/mL (≈ 553 µM) in assay [2]; 25 µg/mL (≈ 138 µM) in assay [3]; 3.13 µg/mL (≈ 17.3 µM) in assay [4]; 6.25 µg/mL (≈ 34.5 µM) in assay [5].
Take `IC#CCn1nnnc1C1CC1`: the MIC in assay [1] stood at 3.13 µg/mL (≈ 11.4 µM); in assay [2], 12.5 µg/mL (≈ 45.6 µM); in assay [3], 12.5 µg/mL (≈ 45.6 µM); in assay [4], 3.13 µg/mL (≈ 11.4 µM); in assay [5], 1.56 µg/mL (≈ 5.69 µM).
Turning to `O=C(c1ccccc1)c1cccn1CC(I)=C(I)I`, the MIC turned out to be 6.25 µg/mL (≈ 10.6 µM) in assay [1]; 6.25 µg/mL (≈ 10.6 µM) in assay [2]; 6.25 µg/mL (≈ 10.6 µM) in assay [3]; 3.13 µg/mL (≈ 5.31 µM) in assay [4]; 1.56 µg/mL (≈ 2.65 µM) in assay [5].
As to `IC#CCn1cccn1`, the MIC in assay [1] was 0.78 µg/mL (≈ 3.36 µM); in assay [2], 3.13 µg/mL (≈ 13.5 µM); in assay [3], 0.78 µg/mL (≈ 3.36 µM); in assay [4], 0.39 µg/mL (≈ 1.68 µM); in assay [5], 0.39 µg/mL (≈ 1.68 µM).
On to `IC(I)=C(I)Cn1ccnn1`, for which the MIC in assay [1] came to 0.78 µg/mL (≈ 1.6 µM); in assay [2] it was 3.13 µg/mL (≈ 6.43 µM); in assay [3], 6.25 µg/mL (≈ 12.8 µM); in assay [4] it was 0.78 µg/mL (≈ 1.6 µM); in assay [5], 0.39 µg/mL (≈ 0.801 µM).
For `Clc1cc(Cl)c(OCC#CI)cc1Cl` [HALOPROGIN], the MIC in assay [1] is 3.13 µg/mL (≈ 8.66 µM); in assay [2] it was 3.13 µg/mL (≈ 8.66 µM); in assay [3], 1.56 µg/mL (≈ 4.32 µM); in assay [4], 0.39 µg/mL (≈ 1.08 µM); in assay [5], 0.39 µg/mL (≈ 1.08 µM).
Take `Fc1ccc(-c2nnn(CC(I)=C(I)I)n2)cc1`: the MIC in assay [1] is above 100 µg/mL; in assay [2], above 100 µg/mL; in assay [3] it was above 100 µg/mL; in assay [4] it was 0.78 µg/mL (≈ 1.34 µM); in assay [5] it was 0.1 µg/mL (≈ 0.172 µM).
With `Cc1nccn1CC(I)=C(I)I`, the MIC was 6.25 µg/mL (≈ 12.5 µM) in assay [1]; 12.5 µg/mL (≈ 25 µM) in assay [2]; 25 µg/mL (≈ 50 µM) in assay [3]; 3.13 µg/mL (≈ 6.26 µM) in assay [4]; 6.25 µg/mL (≈ 12.5 µM) in assay [5].
Turning to `COC(=O)c1cccn1CC(I)=C(I)I`, the MIC in assay [1] worked out at 3.13 µg/mL (≈ 5.77 µM); in assay [2] it was 1.56 µg/mL (≈ 2.87 µM); in assay [3], 3.13 µg/mL (≈ 5.77 µM); in assay [4] it was 0.39 µg/mL (≈ 0.718 µM); in assay [5], 0.78 µg/mL (≈ 1.44 µM).
Regarding `COC(=O)c1cc([N+](=O)[O-])cn1CC(I)=C(I)I`, the MIC in assay [1] was 1.56 µg/mL (≈ 2.65 µM); in assay [2] it was 3.13 µg/mL (≈ 5.32 µM); in assay [3], 3.13 µg/mL (≈ 5.32 µM); in assay [4], 0.39 µg/mL (≈ 0.663 µM); in assay [5], 0.39 µg/mL (≈ 0.663 µM).
`O=[N+]([O-])c1ccc(-c2nnn(CC#CI)n2)cc1`: the MIC in assay [1] worked out at 6.25 µg/mL (≈ 17.6 µM); in assay [2] it was 25 µg/mL (≈ 70.4 µM); in assay [3], 3.13 µg/mL (≈ 8.81 µM); in assay [4], 0.39 µg/mL (≈ 1.1 µM); in assay [5] it was 0.2 µg/mL (≈ 0.563 µM).
For `O=[N+]([O-])c1c(Cl)cccc1-c1cn(CC(I)=C(I)I)cc1Cl` the same measures were 12.5 µg/mL (≈ 18.5 µM), 12.5 µg/mL (≈ 18.5 µM), 12.5 µg/mL (≈ 18.5 µM), 6.25 µg/mL (≈ 9.26 µM) and 3.13 µg/mL (≈ 4.64 µM).
